Values quoted from earlier work in publication PMC6008299, “Impact of race on dose selection of molecular-targeted agents in early-phase oncology trials” (British Journal of Cancer, 2018).
Where two headings read alike, the source gives them in different places. Marks after values point to notes of the source that are not given here.

Assays:
[1] = system: patients with solid tumours; set-up: method as in PMID 15955900; details: recommended phase 2 dose; ref [11]–[44]; cited from earlier work
[2] = system: patients with solid tumours; set-up: method as in PMID 15955900; details: recommended phase 2 dose; ref [11]–[44]; cited from earlier work; remark: listed apart in the source
[3] = cited from earlier work
[4] = Asian, at the MTD, ref not given, cited from earlier work
[5] = system: patients with solid tumours; details: dose at which PK is compared; ref not given; cited from earlier work
[6] = at the MTD, Day 1, ref not given
[7] = at the MTD, Day 28, ref not given
[8] = at the MTD, Day 15, ref not given
[9] = at the MTD, Day 21, ref not given
[10] = at the MTD, Day 8, ref not given
[11] = at the MTD, Day 23 or 24, ref not given

COc1cc2c(Nc3ccc(Br)cc3F)ncnc2cc1OCC1CCN(C)CC1 [Vandetanib]
RP2D (Japan) [1]: 300 mg QD | RP2D (Western) [2]: 300 mg QD

COc1cc2nccc(Oc3ccc(NC(=O)NC4CC4)c(Cl)c3)c2cc1C(N)=O [Lenvatinib]
AUC0-24 [3, 6]: 3913.8 ng·h/mL | Cmax [3, 6]: 0.598 µg/mL | T1/2 [3, 6]: 5.3 h | Tmax [3, 6]: 1.5 h | AUC0-24 [3, 7]: 4783.0 ng·h/mL | Cmax [3, 7]: 0.5791 µg/mL | T1/2 [3, 7]: 5.8 h | Tmax [3, 7]: 2.8 h | AUC0-24 ([4]; Day 1): 3.15 µg·h/mL | Cmax ([4]; Day 1): 0.418 µg/mL | AUC0-24 ([4]; Day 15): 4.14 µg·h/mL | Cmax ([4]; Day 15): 0.518 µg/mL | Tmax ([4]; Day 15): 2.0 h

CNC(=O)c1ccccc1Sc1ccc2c(/C=C/c3ccccn3)n[nH]c2c1 [Axitinib]
AUC0-24 [3, 6]: 188 ng·h/mL | Cmax [3, 6]: 0.022 µg/mL | T1/2 [3, 6]: 2.3 h | Tmax [3, 6]: 3.2 h | AUC0-24 [3, 8]: 258 ng·h/mL | Cmax [3, 8]: 0.027 µg/mL | T1/2 [3, 8]: 2.3 h | Tmax [3, 8]: 2.4 h | RP2D (Japan) [1]: 5 mg BID | MTD [5]: 5 mg BID | AUC0-24 ([4]; Day 1): 0.142 µg·h/mL | Cmax ([4]; Day 1): 0.017 µg/mL | T1/2 ([4]; Day 1): 4.8 h | Tmax ([4]; Day 1): 4.10 h | AUC0-24 ([4]; Day 15): 0.138 µg·h/mL | Cmax ([4]; Day 15): 0.0214 µg/mL | T1/2 ([4]; Day 15): 4.04 h | Tmax ([4]; Day 15): 1.37 h | RP2D (Western) [2]: 5 mg BID

CNC(=O)c1cc(Oc2ccc(NC(=O)Nc3ccc(Cl)c(C(F)(F)F)c3)c(F)c2)ccn1 [Regorafenib]
AUC0-24 [3, 9]: 58270 ng·h/mL | Cmax [3, 9]: 3.904 µg/mL | T1/2 [3, 9]: 22.23 h | Tmax [3, 9]: 5.033 h | RP2D (Japan) [1]: 160 mg QD | MTD [5]: 160 mg QD | RP2D (Western) [2]: 160 mg QD

Cc1ccc(Nc2nccc(N(C)c3ccc4c(C)n(C)nc4c3)n2)cc1S(N)(=O)=O [Pazopanib]
RP2D (Western) [2]: 800 mg QD

C[C@@H](Oc1cc(-c2cnn(C3CCNCC3)c2)cnc1N)c1c(Cl)ccc(F)c1Cl [Crizotonib]
RP2D (Japan) [1]: 250 mg BID | RP2D (Western) [2]: 250 mg BID

CO[C@H]1C[C@@H]2CC[C@@H](C)[C@@](O)(O2)C(=O)C(=O)N2CCCC[C@H]2C(=O)O[C@H]([C@H](C)C[C@@H]2CC[C@@H](OCCO)[C@H](OC)C2)CC(=O)[C@H](C)/C=C(\C)[C@@H](O)[C@@H](OC)C(=O)[C@H](C)C[C@H](C)/C=C/C=C/C=C/1C [Everolimus]
RP2D (Japan) [1]: 10 mg QD

CS(=O)(=O)CCNCc1ccc(-c2ccc3ncnc(Nc4ccc(OCc5cccc(F)c5)c(Cl)c4)c3c2)o1 [Lapatinib]
RP2D (Japan) [1]: 1500 mg QD | RP2D (Western) [2]: 1250 mg QD

CNC(=O)c1cc(Oc2ccc(NC(=O)Nc3ccc(Cl)c(C(F)(F)F)c3)cc2)ccn1 [Sorafenib]
RP2D (Japan) [1]: 400 mg BID | RP2D (Western) [2]: 400 mg BID

CN(C)C/C=C/C(=O)Nc1cc2c(Nc3ccc(F)c(Cl)c3)ncnc2cc1O[C@H]1CCOC1 [Afatinib]
AUC0-∞ ([3]; Caucasian, at the MTD, Day 1 (footnote *), ref not given): 762* ng·h/mL | T1/2 [3, 6]: 21.9 h | Tmax [3, 6]: 5.08 h | AUC0-24 [3, 7]: 598 ng·h/mL | T1/2 [3, 7]: 22.3 h | Tmax [3, 7]: 5.00 h | RP2D (Japan) [1]: 50 mg QD | MTD [5]: 50 mg QD | AUC0-24 ([4]; Day 1): 0.539 µg·h/mL | T1/2 ([4]; Day 1): 14.8 h | AUC0-24 ([4]; Day 28): 1.01 µg·h/mL | T1/2 ([4]; Day 28): 33.5 h | RP2D (Western) [2]: 50 mg QD

Cc1cc(Nc2ncc(Cl)c(Nc3ccccc3S(=O)(=O)C(C)C)n2)c(OC(C)C)cc1C1CCNCC1 [Ceritinib]
AUC0-24 [3, 10]: 16,500±4750 ng·h/mL | Cmax [3, 10]: 0.8 ± 0.205 µg/mL | T1/2 [3, 10]: 41 h | Tmax [3, 10]: 4 to 6 h | RP2D (Japan) [1]: 750 mg QD | MTD [5]: 750 mg QD | AUC0-24 ([4]; Day 8): 25.7 µg·h/mL | Cmax ([4]; Day 8): 1.22 µg/mL | Tmax ([4]; Day 8): 6.96 h | RP2D (Western) [2]: 750 mg QD

CCN(CC)CCNC(=O)c1c(C)[nH]c(/C=C2\C(=O)Nc3ccc(F)cc32)c1C [Sunitinib]
AUC0-24 [3, 6]: 420 ng·h/mL | Tmax [3, 6]: 5.0 h | AUC0-24 [3, 7]: 1296 ng·h/mL | Tmax [3, 7]: 8.5 h | RP2D (Japan) [1]: 50 mg QD | MTD [5]: 50 mg QD | AUC0-24 ([4]; Day 1): 0.374 µg·h/mL | Cmax ([4]; Day 1): 0.0228 µg/mL | Tmax ([4]; Day 1): 7 h | AUC0-24 ([4]; Day 28): 1.406 µg·h/mL | Cmax ([4]; Day 28): 0.0693 µg/mL | Tmax ([4]; Day 28): 6 h | RP2D (Western) [2]: 50 mg QD

C#Cc1cccc(Nc2ncnc3cc(OCCOC)c(OCCOC)cc23)c1 [Erlotinib]
AUC0-24 [3, 6]: 16510 ± 11020 ng·h/mL | Cmax [3, 6]: 1.136 ± 0.865 µg/mL | T1/2 [3, 6]: 20 ± 9.74 h | AUC0-24 [3, 11]: 38420 ± 29550 ng·h/mL | Cmax [3, 11]: 2.12 ± 1.52 µg/mL | T1/2 [3, 11]: 18.18 ± 5.74 h | RP2D (Japan) [1]: 150 mg QD | MTD [5]: 150 mg QD | Cmax ([4]; Day 1): 0.958 ± 0.45719 µg/mL | T1/2 ([4]; Day 1): 25.92 ± 9.31 h | Tmax ([4]; Day 1): 6.00 ± 8.92 h | Cmax ([4]; Day 23 or 24): 2.38433 ± 0.93243 µg/mL | T1/2 ([4]; Day 23 or 24): 27.19 ± 9.07 h | Tmax ([4]; Day 23 or 24): 1.83 ± 0.41 h | RP2D (Western) [2]: 150 mg QD

CCCS(=O)(=O)Nc1ccc(F)c(C(=O)c2c[nH]c3ncc(-c4ccc(Cl)cc4)cc23)c1F [Vemurafenib]
Cmax [3, 8]: 61.4 µg/mL | T1/2 [3, 8]: 34.1 h | Cmax ([3]; in vivo): 4.8 µg/mL | Tmax ([3]; in vivo): 5.0 h | RP2D (Japan) [1]: 960 mg BID | MTD [5]: 960 mg BID | T1/2 ([4]; Day 1): 12.7 h | T1/2 ([4]; Day 15): 60.8 h | RP2D (Western) [2]: 960 mg BID
